Measured values as given in patent publication US20230320996A1, “NANOPARTICLES AND METHODS OF MANUFACTURE THEREOF” (Hillstream BioPharma, Inc., priority 2020, published 2023).

Legend:
[1] = tested on: MDA-MB 231 cells; assay: Inhibition of cell proliferation; type: cell-based; conditions: Homo sapiens, 5000 cells per well, 0.01-100 μM, 72 hours
Method: (§1) Next, the potency of inhibition of salinomycin-induced cell growth was probed by comparing the inhibition with salinomycin and salinomycin nanoparticle in MCF-7, MDA-MB 231 and MDA-MB 468 cell lines. […] (see FIG. 6A, B, C). MCF-7 cells at concentration of 5000 cells per well were treated with salinomycin or salinomycin nanoparticles from a concentration of 0.01-100 μM respectively for 72 hours. […] MDA-MB 468 cells at concentration of 5000 cells per well were treated with salinomycin or salinomycin nanoparticles from a concentration of 0.01-100 μM respectively for 72 hours. […] MDA-MB 231 cells at concentration of 5000 cells per well were treated with salinomycin or salinomycin nanoparticles from a concentration of 0.01-100 μM respectively for 72 hours.

[2] = tested on: MDA-MB 468 cells; assay: Inhibition of cell proliferation; type: cell-based; conditions: Homo sapiens, 5000 cells per well, 0.01-100 μM, 72 hours
Method: as §1

[3] = tested on: MCF-7 cells; assay: Inhibition of cell proliferation; type: cell-based; conditions: Homo sapiens, MCF7; 5000 cells per well, 0.01-100 μM, 72 hours
Method: as §1

[4] = tested on: BALB/c mice; assay: Maximum tolerated dose, body weight reduction as response; type: in vivo; conditions: intravenously
Method: Next, the maximum tolerated dose of salinomycin and salinomycin-loaded PLA based hybrid block copolymeric salinomycin nanoparticle was probed in BALB/c mice. Mice were administered the salinomycin loaded hybrid block copolymeric nanoparticles once a week for 3 weeks. The body weight reduction was observed as a phenotypic response. The dose-response of salinomycin and the salinomycin nanoparticle was observed by administration intraperitoneally (FIG. 7) and intravenously (FIG. 8). For intraperitoneal administration, mice were administered salinomycin and salinomycin loaded nanoparticles at 5 mg/kg, 7.5 mg/kg, 10 mg/kg. Further, only the salinomycin nanoparticles were administered at 12 mg/kg and 15 mg/kg, intraperitoneally. Three mice were probed at each dose for salinomycin and salinomycin loaded nanoparticle. For intravenous administration, mice were administered salinomycin and salinomycin loaded nanoparticles at 5 mg/kg. Only salinomycin nanoparticles were administered at 1 mg/kg, and 7.5 mg/kg. Further another group of salinomycin at 2.5 mg/kg was also tested. Three mice were probed at each dose for salinomycin and salinomycin loaded nanoparticle. It was observed that free salinomycin was tolerated up to a dose of 10 mg/kg and the salinomycin loaded nanoparticle was tolerated up to 15 mg/kg, when administered intraperitoneally. […]

## CC[C@@H](C(=O)[C@@H](C)[C@@H](O)[C@H](C)[C@@H]1O[C@@H]([C@@H](CC)C(=O)O)CC[C@@H]1C)[C@H]1O[C@]2(C=C[C@@H](O)[C@]3(CC[C@@](C)([C@H]4CC[C@](O)(CC)[C@H](C)O4)O3)O2)[C@H](C)C[C@@H]1C [salinomycin]
[1]
  IC50: 3460 nM
[2]
  IC50: 1470 nM
[3]
  IC50: 2270 nM
[4]
  lethal dose: 5 mg/kg
